Test results: US9220264B2, “Multimeric forms of antimicrobial peptides” (Singapore Health Services Pte Ltd., priority 2008, dated 2015)
Converted amounts (≈) assume the structure as drawn. Bridge positions count the residues as written; N and C are the ends. Peptide text beside a SMILES is read from it. I, II: the chains in the order shown.

Legend:
[1] = test system: Candida albicans ATCC10231; assay type: cell-based
Description: (§1) MICs was determined by broth macrodilution method modified from that described by the National Committee for Clinical Laboratory Standards (NCCL). The Mueller Hinton Broth (MHB) at ⅙ strength and without addition of Ca^2+ and Mg^2+ was used for dilution. Serial twofold dilutions of V2 dimer solution was prepared in MHB (⅙ strength) in test tubes. 1 ml of inoculum of test organisms in MHB (⅙ strength) was added to 1 ml of each dilution of V2 dimer to yield as final concentration of 10^4 to 10^5 colony forming units/ml in each test tube. The tubes were incubated at 35° C. for 16 to 20 hours. A positive control containing only the broth and organism, and a negative control tube containing only the broth were also incubated in parallel to the test samples. The above was repeated for each different test organism in separate experiments. The MIC of V2 dimer peptide for each clinical isolate or reference organism was read as the lowest concentration of peptide that inhibited visible growth of the test organism.
(§2) The MIC was also determined for other peptides and compared to gentamicin.

[2] = test system: Clinical Escherichia coli DB16027 Source: Blood; assay type: cell-based; conditions: Clinical DB16027 Source: Blood
Description: as §1, §2

[3] = test system: Clinical Escherichia coli DU46381R Source: Urine; assay type: cell-based
Description: as §1, §2

[4] = test system: Clinical Pseudomonas aeruginosa 07DM 023257 Source: Eye; assay type: cell-based; conditions: Clinical 07DM 023257 Source: Eye
Description: as §1, §2

[5] = test system: Clinical Pseudomonas aeruginosa 07DM023376 Source: Eye; assay type: cell-based; conditions: Clinical 07DM023376 Source: Eye
Description: as §1, §2

[6] = test system: Clinical Pseudomonas aeruginosa DM 023104 Source: Eye; assay type: cell-based; conditions: Clinical DM 023104 Source: Eye
Description: as §1, §2

[7] = test system: Clinical Pseudomonas aeruginosa DM 023155 Source: Eye; assay type: cell-based; conditions: Clinical DM 023155 Source: Eye
Description: as §1, §2

[8] = test system: Clinical Pseudomonas aeruginosa PAE 230 DR4877/07 Source: Sputum; assay type: cell-based; conditions: Clinical PAE 230 DR4877/07 Source: Sputum
Description: as §1, §2

[9] = test system: Clinical Pseudomonas aeruginosa PAE 239 DM5790/07 Source: Wound; assay type: cell-based; conditions: Clinical PAE 239 DM5790/07 Source: Wound
Description: as §1, §2

[10] = test system: Clinical Pseudomonas aeruginosa PAE 240 DU14476/07 Source: Urine; assay type: cell-based; conditions: Clinical PAE 240 DU14476/07 Source: Urine
Description: as §1, §2

[11] = test system: Clinical Pseudomonas aeruginosa PAE 249 DM15013 Source: Wound; assay type: cell-based; conditions: Clinical PAE 249 DM15013 Source: Wound
Description: as §1, §2

[12] = test system: Clinical Staphylococcus aureus DM4001 Source: Eye; assay type: cell-based
Description: as §1, §2

[13] = test system: Escherichia coli ATCC25922; assay type: cell-based
Description: as §1, §2

[14] = test system: Fusarium solani ATCC 36031; assay type: cell-based
Description: as §1, §2

[15] = test system: Clinical Cadida albicans DF2672R Source: Urine; assay type: cell-based, Candida albicans
Description: as §1, §2

Compound	MIC [1] [µg/mL]	MIC [2] [µg/mL]	MIC [3] [µg/mL]	MIC [4] [µg/mL]	MIC [5] [µg/mL]	MIC [6] [µg/mL]	MIC [7] [µg/mL]	MIC [8] [µg/mL]	MIC [9] [µg/mL]	MIC [10] [µg/mL]	MIC [11] [µg/mL]	MIC [12] [µg/mL]	MIC [13] [µg/mL]	MIC [14] [µg/mL]	MIC [15] [µg/mL]
N=C(N)NCCC[C@H](NC(=O)[C@H](CCCNC(=N)N)NC(=O)[C@H](Cc1c[nH]c2ccccc12)NC(=O)[C@H](Cc1c[nH]c2ccccc12)NC(=O)[C@H](CCCCN)NC(=O)[C@H](CCCNC(=N)N)NC(=O)CNC(=O)[C@@H](N)CCCNC(=N)N)C(=O)O [W2-8AA, RGRKWWRR] (H-RGRKWWRR-OH; N-terminus and C-terminus assumed)	12.5 (≈ 10.4 µM)	6.25 (≈ 5.21 µM)	6.25 (≈ 5.21 µM)	>50	25 (≈ 20.8 µM)	25 (≈ 20.8 µM)	50 (≈ 41.7 µM)	>50	>50	12.5 (≈ 10.4 µM)	50 (≈ 41.7 µM)	12.5 (≈ 10.4 µM)	12.5 (≈ 10.4 µM)	25 (≈ 20.8 µM)	12.5 (≈ 10.4 µM)
CC(C)[C@H](NC(=O)[C@@H](NC(=O)[C@H](CCCNC(=N)N)NC(=O)[C@H](CCCNC(=N)N)NC(=O)[C@@H](NC(=O)[C@@H](NC(=O)[C@H](CCCCN)NC(=O)[C@H](CCCNC(=N)N)NC(=O)CNC(=O)[C@@H](N)CCCNC(=N)N)C(C)C)C(C)C)C(C)C)C(=O)O [V4 monomer, RGRKVVRRVV] (H-RGRKVVRRVV-OH; N-terminus and C-terminus assumed)	25 (≈ 20.4 µM)	>50	>50	>50	>50	>50	>50	>50	>50	>50	>50	>50	>50	>100	>50
CC(C)[C@H](NC(=O)[C@H](CCCCN)NC(=O)[C@H](CCCNC(=N)N)NC(=O)CNC(=O)[C@@H](N)CCCNC(=N)N)C(=O)N[C@H](C(=O)N[C@@H](CCCNC(=N)N)C(=O)N[C@@H](CCCNC(=N)N)C(=O)NCCCC[C@H](NC(=O)[C@H](CCCNC(=N)N)NC(=O)[C@H](CCCNC(=N)N)NC(=O)[C@@H](NC(=O)[C@@H](NC(=O)[C@H](CCCCN)NC(=O)[C@H](CCCNC(=N)N)NC(=O)CNC(=O)[C@@H](N)CCCNC(=N)N)C(C)C)C(C)C)C(=O)NCCCC[C@H](NC(=O)[C@H](CCCCNC(=O)[C@H](CCCNC(=N)N)NC(=O)[C@H](CCCNC(=N)N)NC(=O)[C@@H](NC(=O)[C@@H](NC(=O)[C@H](CCCCN)NC(=O)[C@H](CCCNC(=N)N)NC(=O)CNC(=O)[C@@H](N)CCCNC(=N)N)C(C)C)C(C)C)NC(=O)[C@H](CCCNC(=N)N)NC(=O)[C@H](CCCNC(=N)N)NC(=O)[C@@H](NC(=O)[C@@H](NC(=O)[C@H](CCCCN)NC(=O)[C@H](CCCNC(=N)N)NC(=O)CNC(=O)[C@@H](N)CCCNC(=N)N)C(C)C)C(C)C)C(=O)N[C@@H](CCCCN)C(=O)O)C(C)C [V2-tetramer] (I: H-RGRKVVRRKKK-OH / II: H-RGRKVVRRK / III: H-RGRKVVRR / IV: H-RGRKVVRR; amide I:9-IV:C, I:10-II:C, II:9-III:C; N-terminus assumed)	12.5 (≈ 2.74 µM)	6.25 (≈ 1.37 µM)	6.25 (≈ 1.37 µM)	12.5 (≈ 2.74 µM)	6.25 (≈ 1.37 µM)	6.25 (≈ 1.37 µM)	6.25 (≈ 1.37 µM)	12.5 (≈ 2.74 µM)	12.5 (≈ 2.74 µM)	6.25 (≈ 1.37 µM)	6.25 (≈ 1.37 µM)	12.5 (≈ 2.74 µM)	12.5 (≈ 2.74 µM)	3.125 (≈ 0.685 µM)	12.5 (≈ 2.74 µM)
CC(C)[C@H](NC(=O)[C@H](CCCCN)NC(=O)[C@H](CCCNC(=N)N)NC(=O)CNC(=O)[C@@H](N)CCCNC(=N)N)C(=O)N[C@H](C(=O)N[C@@H](CCCNC(=N)N)C(=O)N[C@@H](CCCNC(=N)N)C(=O)O)C(C)C [V2-8AA, RGRKVVRR] (H-RGRKVVRR-OH; N-terminus and C-terminus assumed)	>50	>50	50 (≈ 48.7 µM)	>50	>50	>50	>50	>50	>50	25 (≈ 24.4 µM)	>50	>50	>50	>100	>50

More lines, now with the values ahead:

MIC [1] [µg/mL]	MIC [2] [µg/mL]	MIC [3] [µg/mL]	MIC [4] [µg/mL]	MIC [5] [µg/mL]	MIC [6] [µg/mL]	MIC [7] [µg/mL]	MIC [8] [µg/mL]	MIC [9] [µg/mL]	MIC [10] [µg/mL]	MIC [11] [µg/mL]	MIC [12] [µg/mL]	MIC [13] [µg/mL]	MIC [14] [µg/mL]	MIC [15] [µg/mL]	Compound
12.5 (≈ 4.74 µM)	12.5 (≈ 4.74 µM)	6.25 (≈ 2.37 µM)	12.5 (≈ 4.74 µM)	25 (≈ 9.47 µM)	12.5 (≈ 4.74 µM)	12.5 (≈ 4.74 µM)	12.5 (≈ 4.74 µM)	12.5 (≈ 4.74 µM)	12.5 (≈ 4.74 µM)	6.25 (≈ 2.37 µM)	12.5 (≈ 4.74 µM)	25 (≈ 9.47 µM)	12.5 (≈ 4.74 µM)	12.5 (≈ 4.74 µM)	N=C(N)NCCC[C@H](NC(=O)CNC(=O)[C@@H](N)CCCNC(=N)N)C(=O)N[C@@H](CCCCN)C(=O)N[C@@H](Cc1c[nH]c2ccccc12)C(=O)N[C@@H](Cc1c[nH]c2ccccc12)C(=O)N[C@@H](CCCNC(=N)N)C(=O)N[C@@H](CCCNC(=N)N)C(=O)NCCCC[C@H](NC(=O)[C@H](CCCNC(=N)N)NC(=O)[C@H](CCCNC(=N)N)NC(=O)[C@H](Cc1c[nH]c2ccccc12)NC(=O)[C@H](Cc1c[nH]c2ccccc12)NC(=O)[C@H](CCCCN)NC(=O)[C@H](CCCNC(=N)N)NC(=O)CNC(=O)[C@@H](N)CCCNC(=N)N)C(=O)N[C@@H](CCCCN)C(=O)O [W2-dimer] (I: H-RGRKWWRRKK-OH / II: H-RGRKWWRR; amide I:9-II:C; N-terminus assumed)
12.5 (≈ 8.44 µM)	6.25 (≈ 4.22 µM)	12.5 (≈ 8.44 µM)	>50	>50	50 (≈ 33.8 µM)	25 (≈ 16.9 µM)	>50	50 (≈ 33.8 µM)	25 (≈ 16.9 µM)	50 (≈ 33.8 µM)	12.5 (≈ 8.44 µM)	12.5 (≈ 8.44 µM)	12.5 (≈ 8.44 µM)	25 (≈ 16.9 µM)	N=C(N)NCCC[C@H](NC(=O)CNC(=O)[C@@H](N)CCCNC(=N)N)C(=O)N[C@@H](CCCCN)C(=O)N[C@@H](Cc1ccc(O)cc1)C(=O)N[C@@H](Cc1ccc(O)cc1)C(=O)N[C@@H](CCCNC(=N)N)C(=O)N[C@@H](CCCNC(=N)N)C(=O)N[C@@H](Cc1ccc(O)cc1)C(=O)N[C@@H](Cc1ccc(O)cc1)C(=O)O [Y4 monomer, RGRKYYRRYY] (H-RGRKYYRRYY-OH; N-terminus and C-terminus assumed)
25 (≈ 21.7 µM)	25 (≈ 21.7 µM)	25 (≈ 21.7 µM)	>50	50 (≈ 43.3 µM)	>50	>50	>50	>50	6.25 (≈ 5.41 µM)	>50	>50	25 (≈ 21.7 µM)	50 (≈ 43.3 µM)	50 (≈ 43.3 µM)	N=C(N)NCCC[C@H](NC(=O)[C@H](CCCNC(=N)N)NC(=O)[C@H](Cc1ccc(O)cc1)NC(=O)[C@H](Cc1ccc(O)cc1)NC(=O)[C@H](CCCCN)NC(=O)[C@H](CCCNC(=N)N)NC(=O)CNC(=O)[C@@H](N)CCCNC(=N)N)C(=O)O [Y2-8AA, RGRKYYRR] (H-RGRKYYRR-OH; N-terminus and C-terminus assumed)
